Reference: patent US20220089578A1, “COMPOUNDS AS GLP-1R AGONISTS” (Terns Pharmaceuticals, Inc., priority 2020, published 2022)

target: human GLP-1R (Homo sapiens, UniProt P43220); assay: GLP-1R Cell Assay 1: cAMP Hunter CHO-K1 GLP1R Gs cell line, HitHunter cAMP assay; format: cell-based; conditions: Table 2; cAMP Hunter CHO-K1 GLP1R Gs cells; percent activity normalized to Exendin-4
Summary of the method: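 Luminescent enzyme-fragment-complementation immunoassay quantified cellular cAMP after 30-60 min compound exposure at 37 °C in HBSS/10 mM HEPES. Data from duplicate runs were normalised to Exendin-4 and fitted nonlinearly for EC50.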

human GLP-1R, sequence (P43220 24-463): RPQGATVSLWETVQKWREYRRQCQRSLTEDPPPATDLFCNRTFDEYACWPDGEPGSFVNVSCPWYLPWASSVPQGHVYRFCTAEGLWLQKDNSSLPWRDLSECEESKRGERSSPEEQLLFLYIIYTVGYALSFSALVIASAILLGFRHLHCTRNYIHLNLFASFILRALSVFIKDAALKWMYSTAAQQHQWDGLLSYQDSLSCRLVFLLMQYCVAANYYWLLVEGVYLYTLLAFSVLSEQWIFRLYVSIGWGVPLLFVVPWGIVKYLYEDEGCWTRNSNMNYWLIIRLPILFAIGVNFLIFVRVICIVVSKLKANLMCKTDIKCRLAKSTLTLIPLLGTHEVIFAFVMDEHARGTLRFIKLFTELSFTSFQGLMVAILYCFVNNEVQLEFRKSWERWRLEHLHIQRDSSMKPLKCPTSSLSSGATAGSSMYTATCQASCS

| Compound | EC50 |
| --- | --- |
| C[C@H]1c2ccc(C#N)cc2CCN1c1cccc(N2CCN(Cc3nc4ccc(C(=O)O)cc4n3C[C@@H]3CCO3)CC2)n1 [Compound 84] | 102 nM |
| O=C(O)c1ccc2nc(CN3CC[C@]4(c5cccc(OCc6ccccc6)n5)C[C@@H]4C3)n(C[C@@H]3CCO3)c2c1 [Compound 97, 2-(((1S,6R)-6-(6-(benzyloxy)pyridin-2-yl)-3-azabicyclo[4.1.0]heptan-3-yl)methyl)-1-(((S)-oxetan-2-yl)methyl)-1H-benzo[d]imidazole-6-carboxylic acid] | 18.6 nM |
| O=C(O)c1ccc2nc(CN3CCN(c4cccc(OCCC5COC5)n4)CC3)n(C[C@@H]3CCO3)c2c1 [Compound 35, (S)-1-(oxetan-2-ylmethyl)-2-((4-(6-(2-(oxetan-3-yl)ethoxy)pyridin-2-yl)piperazin-1-yl)methyl)-1H-benzo[d]imidazole-6-carboxylic acid] | > 500 nM |
| N#CC1(COc2cccc(N3CCN(Cc4nc5ccc(C(=O)O)cc5n4C[C@@H]4CCO4)CC3)n2)CCOCC1 [Compound 41, (S)-2-((4-(6-((4-cyanotetrahydro-2H-pyran-4-yl)methoxy)pyridin-2-yl)piperazin-1-yl)methyl)-1-(oxetan-2-ylmethyl)-1H-benzo[d]imidazole-6-carboxylic acid] | > 500 nM |
| C[C@H](Oc1cccc(N2CCN(Cc3nc4ccc(C(=O)O)cc4n3C[C@@H]3CCO3)CC2)n1)c1nc2ccccc2s1 [Compound 115, 2-((4-(6-((S)-1-(benzo[d]thiazol-2-yl)ethoxy)pyridin-2-yl)piperazin-1-yl)methyl)-1-(((S)-oxetan-2-yl)methyl)-1H-benzo[d]imidazole-6-carboxylic acid] | 8 nM |
| O=C(O)c1ccc2nc(CN3CCN(c4cccc(OCc5ccccc5)n4)C(=O)C3)n(C[C@@H]3CCO3)c2c1 [Compound 19, (S)-2-((4-(6-(benzyloxy)pyridin-2-yl)-3-oxopiperazin-1-yl)methyl)-1-(oxetan-2-ylmethyl)-1H-benzo[d]imidazole-6-carboxylic acid] | 41.2 nM |
| O=C(O)c1ccc2nc(CN3CCN(c4cccc(OC5(c6ccccc6)COC5)n4)CC3)n(C[C@@H]3CCO3)c2c1 [Compound 45, (S)-1-(oxetan-2-ylmethyl)-2-((4-(6-((3-phenyloxetan-3-yl)oxy)pyridin-2-yl)piperazin-1-yl)methyl)-1H-benzo[d]imidazole-6-carboxylic acid] | 21.7 nM |
| O=C(O)c1ccc2nc(CN3CC[C@@]4(c5cccc(OCc6ccc(Cl)cc6Cl)n5)C[C@H]4C3)n(C[C@@H]3CCO3)c2c1 (single isomer, unassigned) [Compound 126-P1] | 0.174 nM |
| CCn1cncc1Cn1c(CN2CCC(c3cccc(OCc4ccc(C#N)cc4F)n3)CC2)nc2ccc(C(=O)O)cc21 [Compound 142, 2-((4-(6-((4-cyano-2-fluorobenzyl)oxy)pyridin-2-yl)piperidin-1-yl)methyl)-1-((1-ethyl-1H-imidazol-5-yl)methyl)-1H-benzo[d]imidazole-6-carboxylic acid] | 0.00833 nM |
| N#Cc1ccc(Cn2ccc3ccc(N4CCN(Cc5nc6ccc(C(=O)O)cc6n5C[C@@H]5CCO5)CC4)nc32)c(F)c1 [Compound 29, (S)-2-((4-(1-(4-cyano-2-fluorobenzyl)-1H-pyrrolo[2,3-b]pyridin-6-yl)piperazin-1-yl)methyl)-1-(oxetan-2-ylmethyl)-1H-benzo[d]imidazole-6-carboxylic acid] | 16.1 nM |
| C[C@@H]1c2ccc(C#N)cc2CCN1c1cccc(N2CCN(Cc3nc4ccc(C(=O)O)cc4n3C[C@@H]3CCO3)CC2)n1 [Compound 83] | 229 nM |
| O=C(O)c1ccc2nc(CN3CCN(c4cccc(N5CCc6cc(Cl)cc(F)c6C5)n4)CC3)n(C[C@@H]3CCO3)c2c1 [Compound 127, (S)-2-((4-(6-(6-chloro-8-fluoro-3,4-dihydroisoquinolin-2(1H)-yl)pyridin-2-yl)piperazin-1-yl)methyl)-1-(oxetan-2-ylmethyl)-1H-benzo[d]imidazole-6-carboxylic acid] | 1.09 nM |
| N#Cc1ccc2c(c1)CCCN2c1cccc(N2CCN(Cc3nc4ccc(C(=O)O)cc4n3C[C@@H]3CCO3)CC2)n1 [Compound 76, (S)-2-((4-(6-(6-cyano-3,4-dihydroquinolin-1(2H)-yl)pyridin-2-yl)piperazin-1-yl)methyl)-1-(oxetan-2-ylmethyl)-1H-benzo[d]imidazole-6-carboxylic acid] | > 500 nM |
| CC(=O)N1CCC(COc2cccc(N3CCN(Cc4nc5ccc(C(=O)O)cc5n4C[C@@H]4CCO4)CC3)n2)CC1 [Compound 38, (S)-2-((4-(6-((1-acetylpiperidin-4-yl)methoxy)pyridin-2-yl)piperazin-1-yl)methyl)-1-(oxetan-2-ylmethyl)-1H-benzo[d]imidazole-6-carboxylic acid] | > 500 nM |
| O=C(O)c1ccc2nc(CN3CCN(c4cccc(OCC5CCC5)n4)CC3)n(C[C@@H]3CCO3)c2c1 [Compound 88, (S)-2-((4-(6-(cyclobutylmethoxy)pyridin-2-yl)piperazin-1-yl)methyl)-1-(oxetan-2-ylmethyl)-1H-benzo[d]imidazole-6-carboxylic acid] | 239 nM |
| O=C(O)c1ccc2nc(CN3CCC(n4nccc4COc4ccccc4)CC3)n(C[C@@H]3CCO3)c2c1 (single isomer, unassigned) [Compound 26-P2] | > 500 nM |
| O=C(O)c1ccc2nc(CN3CCN(c4cccc(OCC5CC6(COC6)C5)n4)CC3)n(C[C@@H]3CCO3)c2c1 [Compound 43, (S)-2-((4-(6-((2-oxaspiro[3.3]heptan-6-yl)methoxy)pyridin-2-yl)piperazin-1-yl)methyl)-1-(oxetan-2-ylmethyl)-1H-benzo[d]imidazole-6-carboxylic acid] | > 500 nM |
| O=C(O)c1ccc2nc(CN3CCN(c4cccc(OCCC5CCCCC5)n4)CC3)n(C[C@@H]3CCO3)c2c1 [Compound 44, (S)-2-((4-(6-(2-cyclohexylethoxy)pyridin-2-yl)piperazin-1-yl)methyl)-1-(oxetan-2-ylmethyl)-1H-benzo[d]imidazole-6-carboxylic acid] | 82.1 nM |
| N#Cc1ccc(Cn2ncc3ccc(N4CCN(Cc5nc6ccc(C(=O)O)cc6n5C[C@@H]5CCO5)CC4)nc32)c(F)c1 [Compound 30, (S)-2-((4-(1-(4-cyano-2-fluorobenzyl)-1H-pyrazolo[3,4-b]pyridin-6-yl)piperazin-1-yl)methyl)-1-(oxetan-2-ylmethyl)-1H-benzo[d]imidazole-6-carboxylic acid] | 16.3 nM |
| CN(Cc1ccc(C#N)cc1)c1cccc(N2CCN(Cc3nc4ccc(C(=O)O)cc4n3C[C@@H]3CCO3)CC2)n1 [Compound 63, (S)-2-((4-(6-((4-cyanobenzyl)(methyl)amino)pyridin-2-yl)piperazin-1-yl)methyl)-1-(oxetan-2-ylmethyl)-1H-benzo[d]imidazole-6-carboxylic acid] | 54.5 nM |
| N#Cc1ccc(COc2nn(C3CCN(Cc4nc5ccc(C(=O)O)cc5n4C[C@@H]4CCO4)CC3)cc2C2CC2)c(F)c1 [Compound 132, (S)-2-((4-(3-((4-cyano-2-fluorobenzyl)oxy)-4-cyclopropyl-1H-pyrazol-1-yl)piperidin-1-yl)methyl)-1-(oxetan-2-ylmethyl)-1H-benzo[d]imidazole-6-carboxylic acid] | 34 nM |
| CS(=O)(=O)N1CC(COc2cccc(N3CCN(Cc4nc5ccc(C(=O)O)cc5n4C[C@@H]4CCO4)CC3)n2)C1 [Compound 56, (S)-2-((4-(6-((1-(methylsulfonyl)azetidin-3-yl)methoxy)pyridin-2-yl)piperazin-1-yl)methyl)-1-(oxetan-2-ylmethyl)-1H-benzo[d]imidazole-6-carboxylic acid] | > 500 nM |
| O=C(O)c1ccc2nc(CN3CCN(c4cccc(OCc5nc6c(s5)CCCC6)n4)CC3)n(C[C@@H]3CCO3)c2c1 [Compound 131, (S)-1-(oxetan-2-ylmethyl)-2-((4-(6-((4,5,6,7-tetrahydrobenzo[d]thiazol-2-yl)methoxy)pyridin-2-yl)piperazin-1-yl)methyl)-1H-benzo[d]imidazole-6-carboxylic acid] | 1.71 nM |
| O=C(O)c1ccc2nc(CN3CCN(c4cccc(OCc5nc6cnccc6s5)n4)CC3)n(C[C@@H]3CCO3)c2c1 [Compound 130, (S)-1-(oxetan-2-ylmethyl)-2-((4-(6-(thiazolo[4,5-c]pyridin-2-ylmethoxy)pyridin-2-yl)piperazin-1-yl)methyl)-1H-benzo[d]imidazole-6-carboxylic acid] | 0.966 nM |
| O=C(O)c1ccc2nc(CN3CCN(c4cccc(OCC5CCC6(CC5)COC6)n4)CC3)n(C[C@@H]3CCO3)c2c1 [Compound 46, (S)-2-((4-(6-((2-oxaspiro[3.5]nonan-7-yl)methoxy)pyridin-2-yl)piperazin-1-yl)methyl)-1-(oxetan-2-ylmethyl)-1H-benzo[d]imidazole-6-carboxylic acid] | > 500 nM |

same assay, conditions: Table 3; cAMP Hunter CHO-K1 GLP1R Gs cells; percent activity normalized to Exendin-4

| Compound | EC50 |
| --- | --- |
| O=C(O)c1ccc2nc(CN3CCC(c4cccc5c4CC(=O)N(c4ccccc4)C5)CC3)n(C[C@@H]3CCO3)c2c1 [Compound 152, (S)-1-(oxetan-2-ylmethyl)-2-((4-(3-oxo-2-phenyl-1,2,3,4-tetrahydroisoquinolin-5-yl)piperidin-1-yl)methyl)-1H-benzo[d]imidazole-6-carboxylic acid] | > 500 nM |
| N#Cc1ccc2c(c1)CCC[C@@H]2Oc1cccc(C2CCN(Cc3nc4ccc(C(=O)O)cc4n3C[C@@H]3CCO3)CC2)n1 (single isomer, unassigned) [Compound 146-P2] | 7.02 nM |
| O=C(O)c1ccc2nc(CN3CCN(c4cc5ccccc5c(OCc5ccccc5)n4)CC3)n(C[C@@H]3CCO3)c2c1 [Compound 156, (S)-2-((4-(1-(benzyloxy)isoquinolin-3-yl)piperazin-1-yl)methyl)-1-(oxetan-2-ylmethyl)-1H-benzo[d]imidazole-6-carboxylic acid] | 87.1 nM |
| O=C(O)c1ccc2nc(CN3CCN(c4nc(OCc5ccccc5)cc5ccccc45)CC3)n(C[C@@H]3CCO3)c2c1 [Compound 157, (S)-2-((4-(3-(benzyloxy)isoquinolin-1-yl)piperazin-1-yl)methyl)-1-(oxetan-2-ylmethyl)-1H-benzo[d]imidazole-6-carboxylic acid] | > 500 nM |
